pEC50, pIC50: −log10 of the molar value. “And” between values parts separate entries of the source, which are not always exact repeats. Equal entries are not always repeated. Where two headings read alike, the source gives them in different places.
Tests used:
[1] = test system: NCI-H358 cells (K-Ras G12C); test: CellTiter-Glo cell viability, NCI-H358; assay type: cell-based, human; settings: K-Ras G12C, 5-day treatment, read-out: H358 Cell Viability IC50
Method in brief: (§1)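 Viability is read as luminescence after five days of compound exposure, with plates first equilibrated to room temperature for roughly 30 minutes. Each signal is expressed as a percentage of the mean DMSO control, and curves are fitted by four-parameter logistic regression.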

[2] = test system: K-Ras G12C (NCI-H358 cells); test: Potency assay: pERK in NCI-H358 cells; assay type: cell-based, human; settings: Homo sapiens; NCI-H358 cells, 4 hours; read-out: pERK EC50 (H358 KRAS G12C)
Method in brief: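 Cells plated the day before were exposed for 4 h at 37° C, 5% CO2 to a 10-point, 3-fold DMSO dilution series (10 mM top stock), in duplicate. Phospho-ERK was read by AlphaLISA SureFire Ultra or by In-Cell Western with DRAQ5 DNA stain, and IC50 came from a 4-parameter sigmoidal fit.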

[3] = target: NRAS Q61K (Homo sapiens (Human), UniProt P01111+P62937, Q61K); test: Ras-Raf disruption/FRET/MOA assay (BRAF RBD, Cyclophilin A); assay type: biochemical
Method in brief: (§2)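 Ras-GMPPNP (12.5 nM), BRAF RBD (50 nM) and 25 μM Cyclophilin A were incubated with compound for 3 h at 25° C, then detected 1.5 h with anti-His Eu and anti-GST APC; IC50 values follow from the reduced TR-FRET ratio.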

[4] = target: KRAS G13C (Homo sapiens (Human), UniProt P01116+P62937, G13C); test: as above; assay type: biochemical; settings: read-out: KRAS G13C FRET IC50
Method in brief: (§3)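 TR-FRET read after 1.5 h with 10 nM anti-His Eu-W1024 and 50 nM anti-GST APC, following 3 h at 25 °C of GMPPNP-loaded His6-Ras (12.5 nM), GST-BRAF RBD (50 nM) and Cyclophilin A (25 μM) with compound from 30 μM final, 10 points, 3-fold. IC50 reported; pH 7.3 HEPES, 100 mM NaCl.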

[5] = target: KRAS G12S (Homo sapiens (Human), UniProt P01116+P62937, G12S); test: as above; assay type: biochemical; settings: read-out: KRAS G12S FRET IC50
Method in brief: as §3

[6] = target: KRAS G12D (Homo sapiens (Human), UniProt P01116+P62937, G12D); test: as above; assay type: biochemical; settings: read-out: KRAS G12D FRET IC50
Method in brief: as §3

[7] = target: NRAS WT (Homo sapiens (Human), UniProt P01111+P62937); test: as above; assay type: biochemical
Method in brief: as §2

[8] = target: KRAS G12V (Homo sapiens (Human), UniProt P01116+P62937, G12V); test: as above; assay type: biochemical; settings: read-out: KRAS G12V FRET IC50
Method in brief: as §3

[9] = target: KRAS WT (Homo sapiens (Human), UniProt P01116+P62937); test: as above; assay type: biochemical; settings: read-out: KRAS WT FRET data IC50
Method in brief: as §3

[10] = target: NRAS G12C (Homo sapiens (Human), UniProt P01111+P62937, G12C); test: as above; assay type: biochemical; settings: read-out: NRAS G12C FRET data IC50
Method in brief: as §2

[11] = target: KRAS G12C (Homo sapiens (Human), UniProt P01116+P62937, G12C); test: as above; assay type: biochemical; settings: read-out: KRAS G12C FRET IC50
Method in brief: as §3

[12] = target: KRAS G13D (Homo sapiens (Human), UniProt P01116+P62937, G13D); test: as above; assay type: biochemical; settings: read-out: KRAS G13D FRET data IC50
Method in brief: as §3

[13] = test system: Capan-1 cells (K-Ras G12V); test: CellTiter-Glo cell viability, Capan-1; assay type: cell-based, human; settings: K-Ras G12V, 5-day treatment, read-out: Capan-1 Cell Viability IC50
Method in brief: as §1

[14] = target: K-Ras G12C(GMP-PNP) binding to BRAF RBD (Homo sapiens (Human), UniProt P01116+P62937, G12C); test: Disruption of BRAF RBD interaction with K-Ras (FRET / MOA assay), K-Ras G12C; assay type: biochemical; settings: read-out: KRAS G12C FRET IC50
Method in brief: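 First, test compounds in a 10-point 3-fold series (30 μM final top) were incubated for 3 hours at 25° C with nucleotide-loaded Ras, cyclophilin A and a BRAF RBD construct. Next, Eu anti-His and allophycocyanin anti-GST detection reagents were added for 1.5 hours. Finally, IC50s were derived from loss of TR-FRET signal against DMSO.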

[15] = test system: NCI-H358 (K-Ras G12C); test: CellTiter-Glo cell viability assay, NCI-H358; assay type: cell-based, human; settings: Homo sapiens, NCI-H358, 120 h, 5-day treatment; read-out: H358 Cell Viability assay data (K-Ras G12C, IC50)
Method in brief: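 Viability is measured as ATP-dependent luminescence (CellTiter-Glo) five days into compound treatment. Responses are normalized to vehicle (DMSO) wells and fitted by four-parameter logistic regression.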

[16] = target: KRAS Q61H (Homo sapiens (Human), UniProt P01116+P62937, Q61H); test: Ras-Raf disruption/FRET/MOA assay (BRAF RBD, Cyclophilin A); assay type: biochemical
Method in brief: as §3

[17] = test system: AsPC-1 (K-Ras G12D); test: Potency assay: pERK; assay type: cell-based, human; settings: Homo sapiens
Description: The purpose of this assay is to measure the ability of test compounds to inhibit K-Ras in cells. […] This procedure measures a decrease in cellular pERK in response to test compounds. The procedure described below in NCI-H358 cells is applicable to K-Ras G12C.
NCI-H358 cells were grown and maintained using media and procedures recommended by the ATCC. On the day prior to compound addition, cells were plated in 384-well cell culture plates (40 μl/well) and grown overnight in a 37° C., 5% CO2 incubator. Test compounds were prepared in 10, 3-fold dilutions in DMSO, with a high concentration of 10 mM. On the day of assay, 40 nL of test compound was added to each well of cell culture plate using an Echo550 liquid handler (LabCyte®). Concentrations of test compound were tested in duplicate. After compound addition, cells were incubated 4 hours at 37° C., 5% CO2. Following incubation, culture medium was removed and cells were washed once with phosphate buffered saline.
In some experiments, cellular pERK level was determined using the AlphaLISA SureFire Ultra p-ERK1/2 Assay Kit (PerkinElmer). Cells were lysed in 25 μL lysis buffer, with shaking at 600 RPM at room temperature. Lysate (10 μL) was transferred to a 384-well Opti-plate (PerkinElmer) and 5 μL acceptor mix was added. After a 2-hour incubation in the dark, 5 μL donor mix was added, plate was sealed, and incubated 2 hours at room temperature. Signal was read on an Envision plate reader (PerkinElmer) using standard AlphaLISA settings. Analysis of raw data was carried out in Excel (Microsoft) and Prism (GraphPad). Signal was plotted vs. the decadal logarithm of compound concentration, and IC50 was determined by fitting a 4-parameter sigmoidal concentration response model.
In other experiments, cellular pERK was determined by In-Cell Western. Following compound treatment, cells were washed twice with 200 μL tris buffered saline (TBS) and fixed for 15 minutes with 150 μL 4% paraformaldehyde in TBS. Fixed cells were washed 4 times for 5 minutes with TBS containing 0.1% Triton X-100 (TBST) and then blocked with 100 μL Odyssey blocking buffer (LI-COR) for 60 minutes at room temperature. Primary antibody (PERK, CST-4370, Cell Signaling Technology) was diluted 1:200 in blocking buffer, and 50 μL was added to each well and incubated overnight at 4° C. Cells were washed 4 times for 5 minutes with TBST. Secondary antibody (IR-800CW rabbit, LI-COR, diluted 1:800) and DNA stain DRAQ5 (LI-COR, diluted 1:2000) were added and incubated 1-2 hours at room temperature. Cells were washed 4 times for 5 minutes with TBST. Plates were scanned on a Li—COR Odyssey CLx Imager. Analysis of raw data was carried out in Excel (Microsoft) and Prism (GraphPad). Signal was plotted vs. the decadal logarithm of compound concentration, and IC50 was determined by fitting a 4-parameter sigmoidal concentration response model.

KRAS G12S, sequence (P01116 other isoform, or with tags, fused parts or gaps G12S): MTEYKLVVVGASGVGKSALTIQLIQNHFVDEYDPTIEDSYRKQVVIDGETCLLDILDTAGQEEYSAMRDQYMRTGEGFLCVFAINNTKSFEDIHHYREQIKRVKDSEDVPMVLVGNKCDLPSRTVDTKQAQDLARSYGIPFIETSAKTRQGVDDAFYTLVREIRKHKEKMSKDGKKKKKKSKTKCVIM
KRAS G12S, sequence (P62937 whole entry): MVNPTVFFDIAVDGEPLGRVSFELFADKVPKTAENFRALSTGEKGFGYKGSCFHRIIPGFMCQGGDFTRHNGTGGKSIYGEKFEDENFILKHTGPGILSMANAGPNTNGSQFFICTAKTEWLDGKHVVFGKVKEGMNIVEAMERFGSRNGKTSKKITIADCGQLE
NRAS WT, sequence (P01111 whole entry): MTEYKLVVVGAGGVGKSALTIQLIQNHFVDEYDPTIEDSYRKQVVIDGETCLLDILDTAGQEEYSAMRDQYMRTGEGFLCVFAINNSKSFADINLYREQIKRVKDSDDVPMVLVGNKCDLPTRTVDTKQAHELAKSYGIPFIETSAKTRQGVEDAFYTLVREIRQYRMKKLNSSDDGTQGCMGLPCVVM
NRAS WT, sequence (P62937 whole entry): as the sequence (P62937 whole entry) above
KRAS G12C, sequence (P01116-2 other isoform, or with tags, fused parts or gaps G12C): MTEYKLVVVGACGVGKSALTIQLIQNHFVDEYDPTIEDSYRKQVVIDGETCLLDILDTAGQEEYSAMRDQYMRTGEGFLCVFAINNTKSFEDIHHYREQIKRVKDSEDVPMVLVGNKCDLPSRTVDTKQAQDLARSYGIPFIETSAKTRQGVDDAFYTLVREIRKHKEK
KRAS G12C, sequence (P62937 whole entry): as the sequence (P62937 whole entry) above
KRAS G12V, sequence (P01116 other isoform, or with tags, fused parts or gaps G12V): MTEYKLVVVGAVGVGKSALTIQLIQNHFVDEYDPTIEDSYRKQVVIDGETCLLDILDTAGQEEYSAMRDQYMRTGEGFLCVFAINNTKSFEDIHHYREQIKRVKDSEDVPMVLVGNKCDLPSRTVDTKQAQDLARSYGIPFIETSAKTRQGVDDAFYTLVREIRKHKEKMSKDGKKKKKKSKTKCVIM
KRAS G12V, sequence (P62937 whole entry): as the sequence (P62937 whole entry) above
NRAS G12C, sequence (P01111 whole entry G12C): as the sequence (P01111 whole entry) above, with G12C counted along it
NRAS G12C, sequence (P62937 whole entry): as the sequence (P62937 whole entry) above
KRAS G13D, sequence (P01116 other isoform, or with tags, fused parts or gaps G13D): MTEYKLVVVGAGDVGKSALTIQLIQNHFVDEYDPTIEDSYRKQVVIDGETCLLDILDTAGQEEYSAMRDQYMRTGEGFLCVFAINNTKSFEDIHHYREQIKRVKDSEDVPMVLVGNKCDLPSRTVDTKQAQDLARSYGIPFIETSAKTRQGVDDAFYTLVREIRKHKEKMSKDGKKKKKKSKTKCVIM
KRAS G13D, sequence (P62937 whole entry): as the sequence (P62937 whole entry) above
KRAS G13C, sequence (P01116 other isoform, or with tags, fused parts or gaps G13C): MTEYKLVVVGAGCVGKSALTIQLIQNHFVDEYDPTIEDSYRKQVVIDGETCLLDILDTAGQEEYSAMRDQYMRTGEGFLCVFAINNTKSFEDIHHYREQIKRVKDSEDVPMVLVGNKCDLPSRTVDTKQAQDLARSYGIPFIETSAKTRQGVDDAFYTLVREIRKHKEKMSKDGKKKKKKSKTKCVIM
KRAS G13C, sequence (P62937 whole entry): as the sequence (P62937 whole entry) above
NRAS Q61K, sequence (P01111 whole entry Q61K): as the sequence (P01111 whole entry) above, with Q61K counted along it
NRAS Q61K, sequence (P62937 whole entry): as the sequence (P62937 whole entry) above
KRAS G12D, sequence (P01116 other isoform, or with tags, fused parts or gaps G12D): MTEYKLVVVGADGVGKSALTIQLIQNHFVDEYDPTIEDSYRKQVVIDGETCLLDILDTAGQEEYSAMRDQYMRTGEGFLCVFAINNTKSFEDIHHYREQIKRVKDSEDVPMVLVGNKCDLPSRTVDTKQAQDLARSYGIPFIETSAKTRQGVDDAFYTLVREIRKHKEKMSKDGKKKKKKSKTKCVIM
KRAS G12D, sequence (P62937 whole entry): as the sequence (P62937 whole entry) above
KRAS WT, sequence (P01116 other isoform, or with tags, fused parts or gaps): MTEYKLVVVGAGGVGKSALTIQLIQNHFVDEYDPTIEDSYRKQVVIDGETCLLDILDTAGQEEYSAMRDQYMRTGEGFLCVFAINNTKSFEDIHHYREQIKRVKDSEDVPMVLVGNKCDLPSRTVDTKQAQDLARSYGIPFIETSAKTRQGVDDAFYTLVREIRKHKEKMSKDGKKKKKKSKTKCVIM
KRAS WT, sequence (P62937 whole entry): as the sequence (P62937 whole entry) above
KRAS Q61H, sequence (P01116 other isoform, or with tags, fused parts or gaps Q61H): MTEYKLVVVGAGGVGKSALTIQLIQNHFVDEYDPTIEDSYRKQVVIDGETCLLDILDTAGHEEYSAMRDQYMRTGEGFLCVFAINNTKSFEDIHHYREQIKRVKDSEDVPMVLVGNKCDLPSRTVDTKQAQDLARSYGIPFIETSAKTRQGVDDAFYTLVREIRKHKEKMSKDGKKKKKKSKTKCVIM
KRAS Q61H, sequence (P62937 whole entry): as the sequence (P62937 whole entry) above
K-Ras G12C(GMP-PNP) binding to BRAF RBD, sequence (P01116 other isoform, or with tags, fused parts or gaps G12C): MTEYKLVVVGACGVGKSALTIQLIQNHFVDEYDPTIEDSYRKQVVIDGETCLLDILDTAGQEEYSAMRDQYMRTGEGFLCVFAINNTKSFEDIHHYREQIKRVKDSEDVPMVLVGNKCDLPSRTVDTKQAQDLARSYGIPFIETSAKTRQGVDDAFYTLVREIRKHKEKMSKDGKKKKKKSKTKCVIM
K-Ras G12C(GMP-PNP) binding to BRAF RBD, sequence (P62937 whole entry): as the sequence (P62937 whole entry) above

Compound | pIC50 ([1]; Homo sapiens, NCI-H358, 120 h) | pEC50 [2] | pIC50 [3] | pIC50 [4] | pIC50 [5] | pIC50 [6] | pIC50 [7] | pIC50 [8] | pIC50 [9] | pIC50 [10] | pIC50 [11] | pIC50 [12] | pIC50 ([13]; Homo sapiens, CAPAN-1, 120 h) | pIC50 [14] | pIC50 [15] | pIC50 [1] | pIC50 [16] | pIC50 [13] | pEC50 ([17]; ASPC1, read-out: pERK EC50) | pEC50 ([17]; ASPC1, AsPC-1 KRAS G12D, read-out: pERK EC50)
CO[C@@H](C)c1ncccc1-c1c2c3cc(ccc3n1C)-c1cc(O)cc(c1)C[C@H](NC(=O)[C@H](C(C)C)N(C)C(C)=O)C(=O)N1CCC[C@H](N1)C(=O)OCC(C)(C)C2 [Compound A104] | 5.00 to 6.00 | > 5.30 | 5.00 to 6.00 | 5.00 to 6.00 | < 5.00 | < 5.00 | 5.00 to 6.00 | < 5.00 | < 5.00 | < 5.00 | 5.00 to 6.00 and < 5.00 | < 5.00 | < 5.00 |  |  |  |  |  |  | 
CCn1c(-c2cccnc2[C@H](C)OC)c2c3cc(ccc31)-c1cc(O)cc(c1)C[C@H](NC(=O)[C@H](C(C)C)N(C)C(=O)C1(C(=O)O)CC1)C(=O)N1CCC[C@H](N1)C(=O)OCC(C)(C)C2 [Compound A150] |  |  | 5.00 to 6.00 | 5.00 to 6.00 | < 5.00 | < 5.00 | 5.00 to 6.00 | < 5.00 | 5.00 to 6.00 | 5.00 to 6.00 | 5.00 to 6.00 | < 5.00 | < 5.00 | 7.00 to 8.00 | > 8.00 |  |  |  |  | 
CCn1c(-c2cccnc2[C@H](C)OC)c2c3cc(ccc31)-c1csc(n1)C[C@H](NC(=O)[C@H](C(C)C)N1CCC3(CN(S(C)(=O)=O)C3)C1=O)C(=O)N1CCC[C@H](N1)C(=O)OCC(C)(C)C2 [Compound A234] |  |  | 5.00 to 6.00 | 5.00 to 6.00 | < 5.00 | < 5.00 | 5.00 to 6.00 | < 5.00 | 5.00 to 6.00 | < 5.00 |  | < 5.00 | < 5.00 |  |  |  |  |  |  | 
CCn1c(-c2cccnc2[C@H](C)OC)c2c3cc(ccc31)-c1csc(n1)C[C@H](NC(=O)[C@H](C(C)C)N(C)C(=O)N1CC(OC)C1)C(=O)N1CCC[C@H](N1)C(=O)OCC(C)(C)C2 [Compound A354] |  |  | 6.00 to 7.00 | 6.00 to 7.00 | 6.00 to 7.00 | 5.00 to 6.00 |  | 6.00 to 7.00 |  | 6.00 to 7.00 | 6.00 to 7.00 | 5.00 to 6.00 |  |  |  | 6.00 to 7.00 | 6.00 to 7.00 | 6.00 to 7.00 |  | 
CCn1c(-c2cccnc2[C@H](C)OC)c2c3cc(ccc31)-c1csc(n1)C[C@H](NC(=O)N1CCC1)C(=O)N1CCC[C@H](N1)C(=O)OCC(C)(C)C2 [Compound A368] | 6.00 to 7.00 |  | 6.00 to 7.00 | 6.00 to 7.00 | 6.00 to 7.00 | 5.00 to 6.00 | 6.00 to 7.00 | 6.00 to 7.00 | 6.00 to 7.00 | 6.00 to 7.00 | 6.00 to 7.00 | 5.00 to 6.00 | 6.00 to 7.00 |  |  |  | 6.00 to 7.00 |  |  | 
CCn1c(-c2cccnc2[C@H](C)OC)c2c3cc(ccc31)-c1cc(O)cc(c1)C[C@H](NC(=O)[C@H](C(C)C)N(C)C(=O)CN(C)C(=O)[C@@H]1CN1CCCN1CCCC1=O)C(=O)N1CCC[C@H](N1)C(=O)OCC(C)(C)C2 (some centres unmarked) [Example 269] |  |  |  |  |  |  |  |  |  |  |  |  |  |  |  |  |  |  | > 5.30 | 
CCn1c(-c2cccnc2[C@H](C)OC)c2c3cc(ccc31)-c1cc(cc(C(F)F)c1)C[C@H](NC(=O)[C@H](C1CCCC1)N1CC[C@]3(CCN(C(=O)[C@@H]4N[C@@H]4C4CC4)C3)C1=O)C(=O)N1CCC[C@H](N1)C(=O)OCC(C)(C)C2 [Example 318] |  |  |  |  |  |  |  |  |  |  |  |  |  |  |  |  |  |  |  | > 5.30
